Results as given in the supplement of paper PMC10307832.

Key:
Test in all cases: relative viability (nuclei count vs DMSO), 5 days (fraction); higher = more cells survive
VX-702 + Pictilisib = compound: NC(=O)c1ccc(N(C(N)=O)c2c(F)cccc2F)nc1-c1ccc(F)cc1F [VX-702] + CS(=O)(=O)N1CCN(Cc2cc3nc(-c4cccc5[nH]ncc45)nc(N4CCOCC4)c3s2)CC1 [Pictilisib] (partner 1 µM)
How it was run: (§1)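 After 5 days of treatment, lung cancer cells in 1536-well plates were fixed and stained in a single step (final 0.05% Triton X-100, 1% formaldehyde, 1 ug/ml Hoechst) and their nuclei counted on 4× images. Treatment had been applied by pin tool the day after seeding as one drug alone or as a fixed anchor-drug dose with five library-drug doses (not always all listed) in √10 steps. Relative viability is the nuclei count of treated wells divided by that of vehicle wells, and values are medians of duplicate plates.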

Dabrafenib + Pemetrexed = compound: CC(C)(C)c1nc(-c2cccc(NS(=O)(=O)c3c(F)cccc3F)c2F)c(-c2ccnc(N)n2)s1 [Dabrafenib] + Nc1nc2[nH]cc(CCc3ccc(C(=O)N[C@@H](CCC(=O)O)C(=O)O)cc3)c2c(=O)[nH]1 [Pemetrexed] (partner 0.2 µM)
How it was run: as §1

Dabrafenib + Olaparib = compound: CC(C)(C)c1nc(-c2cccc(NS(=O)(=O)c3c(F)cccc3F)c2F)c(-c2ccnc(N)n2)s1 [Dabrafenib] + O=C(c1cc(Cc2n[nH]c(=O)c3ccccc23)ccc1F)N1CCN(C(=O)C2CC2)CC1 [Olaparib] (partner 8 µM)
How it was run: as §1

VX-702 + Vorinostat = compound: NC(=O)c1ccc(N(C(N)=O)c2c(F)cccc2F)nc1-c1ccc(F)cc1F [VX-702] + O=C(CCCCCCC(=O)Nc1ccccc1)NO [Vorinostat] (partner 1 µM)
How it was run: as §1

Cell Line	relative viability (VX-702 + Pictilisib; first compound 0.02 µM)	relative viability (VX-702 + Pictilisib; first compound 0.2 µM)	relative viability (VX-702 + Pictilisib; first compound 0.6325 µM)	relative viability (VX-702 + Pictilisib; first compound 2 µM)	relative viability (Dabrafenib + Pemetrexed; first compound 0.003 µM)	relative viability (Dabrafenib + Pemetrexed; first compound 0.009487 µM)	relative viability (Dabrafenib + Pemetrexed; first compound 0.03 µM)	relative viability (Dabrafenib + Pemetrexed; first compound 0.09487 µM)	relative viability (Dabrafenib + Pemetrexed; first compound 0.3 µM)	relative viability (Dabrafenib + Olaparib; first compound 0.003 µM)	relative viability (Dabrafenib + Olaparib; first compound 0.009487 µM)	relative viability (Dabrafenib + Olaparib; first compound 0.03 µM)	relative viability (Dabrafenib + Olaparib; first compound 0.09487 µM)	relative viability (Dabrafenib + Olaparib; first compound 0.3 µM)	relative viability (VX-702 + Vorinostat; first compound 0.02 µM)	relative viability (VX-702 + Vorinostat; first compound 0.2 µM)	relative viability (VX-702 + Vorinostat; first compound 0.6325 µM)	relative viability (VX-702 + Vorinostat; first compound 2 µM)
NCI-H647	0.479	0.432	0.461	0.644	0.187	0.186	0.167	0.159	0.16	0.661	0.558	0.449	0.557	0.607	0.563	0.499	0.304	0.897
NCI-H1666	0.513	0.439	0.454	0.263	0.787	0.864	0.877	0.97	0.865	0.783	0.753	0.776	0.746	0.799	1.07	0.989	0.993	0.979
NCI-H1734	0.516	0.388	0.388	0.346		0.417	0.397	0.421	0.411		0.69	0.504	0.465	0.557	0.812	0.759	0.781	0.732
BEN	0.558	0.526	0.491	0.608		0.764		0.846	0.908		1.24		1.02	1.18	0.63	0.559	0.643	0.559
